Measured values from patent publication US20240217982A1, “KRAS INHIBITORS” (Bristol-Myers Squibb Company, priority 2021, published 2024).

Assays:
KRAS G12D [1] = target: T1, KRAS G12D (Homo sapiens (Human), UniProt P01116, G12D); test: KRAS G12D RAF Disruption Assay (HTRF); type: biochemical; details: recombinant GMPPNP-loaded KRAS G12D (5 nM), GST-RAF1 RBD (9 nM), HTRF signal
Method: Recombinant GMPPNP-loaded KRAS G12D (5 nM) was treated with compound at room temperature for 20 minutes in assay buffer (50 mM Tris pH 7.5, 100 mM NaCl, 1 mM MgCl2, 1 mM DTT, 100 ug/mL BSA).

KRAS G12D [2] = target: T1, KRAS G12D; test: KRAS G12D Nucleotide Exchange Assay (HTRF); type: biochemical; details: recombinant GDP-loaded KRAS G12D (20 nM), BIODIPY-labeled GDP (400 nM), recombinant SOS (10 nM), HTRF signal
Method: Recombinant GDP-loaded KRAS G12D (20 nM) was treated with compound at room temperature for 20 minutes in assay buffer (10 mM Hepes pH 7.4, 150 mM NaCl, 5 mM MgCl2, 0.0025% Igepal-CA630, 0.05% BSA, 1 mM DTT, 0.5 nM SA-Tb). BIODIPY-labeled GDP (400 nM) and recombinant SOS (10 nM) were added, and the reaction was incubated for 30 minutes.

T1 sequence (P01116-2 other isoform, or with tags, fused parts or gaps G12D): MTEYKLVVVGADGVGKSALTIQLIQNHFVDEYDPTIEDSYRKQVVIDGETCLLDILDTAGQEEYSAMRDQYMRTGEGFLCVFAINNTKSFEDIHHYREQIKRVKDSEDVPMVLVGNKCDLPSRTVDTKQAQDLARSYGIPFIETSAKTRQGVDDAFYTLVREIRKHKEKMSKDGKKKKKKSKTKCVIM

Row | SMILES | KRASG12D RAF Disruption Assay (IC50, µM) (KRAS G12D [1]) | KRASG12D Nucleotide Exchange Assay (IC50, µM) (KRAS G12D [2])
1 | CCc1cccc2cc(O)cc(-c3c(Cl)cc4c(N5CC[C@H]6CC[C@@H](C5)N6)nc(OC[C@]56CCCN5C[C@@H](F)C6)nc4c3F)c12 (single isomer, unassigned) [Example 8-3] | 17.3 µM | 0.07 µM
2 | Cc1cc(N)nc(-c2c(Cl)cc3c(N4CC[C@H]5CC[C@@H](C4)N5)nc(OCC4(CN5CC[C@@H](F)C5)CC4)nc3c2F)c1C(F)(F)F [Example 10-4, 6-{6-chloro-4-[(1S,6R)-3,9-diazabicyclo[4.2.1]nonan-3-yl]-8-fluoro-2-[(1-{[(3R)-3-fluoropyrrolidin-1-yl]methyl}cyclopropyl)methoxy]quinazolin-7-yl}-4-methyl-5-(trifluoromethyl)pyridin-2-amine] | 41.5 µM | 0.11 µM
3 | Cc1cc(N)nc(-c2ccc3c(N4CC[C@H]5CC[C@@H](C4)N5)nc(OC[C@@]45CCCN4C[C@H](F)C5)nc3c2F)c1C(F)(F)F [Example 12-1, 6-(2-{[(2R,7aS)-2-fluoro-hexahydro-1H-pyrrolizin-7a-yl]methoxy}-4-[(1S,6R)-3,9-diazabicyclo[4.2.1]nonan-3-yl]-8-fluoroquinazolin-7-yl)-4-methyl-5-(trifluoromethyl)pyridin-2-amine] | 6.3 µM | 0.03 µM
4 | CCc1cccc2cc(O)cc(-c3ccc4c(N5CC[C@H]6CC[C@@H](C5)N6)nc(OC[C@@]56CCCN5C[C@H](F)C6)nc4c3F)c12 [Example 11-5, 4-(2-{[(2R,7aS)-2-fluoro-hexahydro-1H-pyrrolizin-7a-yl]methoxy}-4-[(1S,6R)-3,9-diazabicyclo[4.2.1]nonan-3-yl]-8-fluoroquinazolin-7-yl)-5-ethylnaphthalen-2-ol] | 3.2 µM | 0.03 µM
5 | CN1CCC[C@@]2(COc3nc(N4CC[C@H]5CC[C@@H](C4)N5)c4ccc(-c5cc(O)cc6cccc(F)c56)c(F)c4n3)CCC[C@@H]12 [Example 9-2, 4-(2-{[(4aS,7aR)-1-methyl-octahydro-1H-cyclopenta[b]pyridin-4a-yl]methoxy}-4-[(1S,6R)-3,9-diazabicyclo[4.2.1]nonan-3-yl]-8-fluoroquinazolin-7-yl)-5-fluoronaphthalen-2-ol] | 2.0 µM | 0.03 µM
6 | Cc1cc(N)nc(-c2c(Cl)cc3c(N4CC[C@H]5CC[C@@H](C4)N5)nc(OC[C@]45CCC[C@H]4N(C)CCC5)nc3c2F)c1C(F)(F)F [Example 3, 6-(2-{[(4aS,7aR)-1-methyl-octahydro-1H-cyclopenta[b]pyridin-4a-yl]methoxy}-6-chloro-4-[(1S,6R)-3,9-diazabicyclo[4.2.1]nonan-3-yl]-8-fluoroquinazolin-7-yl)-4-methyl-5-(trifluoromethyl)pyridin-2-amine] | 0.05 µM | <0.002 µM
7 | Cc1cc(N)nc(-c2c(Cl)cc3c(N4CC[C@H]5CC[C@@H](C4)N5)nc(OCC4(CN5CCCCC5)CC4)nc3c2F)c1C(F)(F)F [Example 10-8, 6-{6-chloro-4-[(1S,6R)-3,9-diazabicyclo[4.2.1]nonan-3-yl]-8-fluoro-2-({1-[(piperidin-1-yl)methyl]cyclopropyl}methoxy)quinazolin-7-yl}-4-methyl-5-(trifluoromethyl)pyridin-2-amine] | 2.6 µM | 0.02 µM
8 | CN1CCC[C@@]2(COc3nc(N4CC[C@H]5CC[C@@H](C4)N5)c4ccc(-c5cc(O)cc6ccccc56)c(F)c4n3)CCC[C@@H]12 [Example 9-1, 4-(2-{[(4aS,7aR)-1-methyl-octahydro-1H-cyclopenta[b]pyridin-4a-yl]methoxy}-4-[(1S,6R)-3,9-diazabicyclo[4.2.1]nonan-3-yl]-8-fluoroquinazolin-7-yl)naphthalen-2-ol] | 5.1 µM | 0.04 µM
9 | CN1CCC[C@H]1COc1nc(N2C3CCNCC2CC3)c2cc(Cl)c(-c3cc(O)cc4ccccc34)c(F)c2n1 (stereo partly drawn) [Example 1-1, 4-(6-chloro-4-{3,9-diazabicyclo[4.2.1]nonan-9-yl}-8-fluoro-2-{[(2S)-1-methylpyrrolidin-2-yl]methoxy}quinazolin-7-yl)naphthalen-2-ol] | 41.99 µM | 33.33 µM
10 | Cc1cc(N)nc(-c2c(Cl)cc3c(N4CCC5CCC(C4)N5)nc(OC[C@@H]4CCCN4C)nc3c2F)c1C(F)(F)F (stereo partly drawn) [Example 2-1, 6-(6-chloro-4-{3,9-diazabicyclo[4.2.1]nonan-3-yl}-8-fluoro-2-{[(2S)-1-methylpyrrolidin-2-yl]methoxy}quinazolin-7-yl)-4-methyl-5-(trifluoromethyl)pyridin-2-amine] | 6.19 µM | 0.04 µM
11 | CN1CCC[C@H]1COc1nc(N2CCN3CCC2CC3)c2cc(Cl)c(-c3cc(O)cc4ccccc34)c(F)c2n1 [Example 1-2, 4-(6-chloro-4-{1,4-diazabicyclo[3.2.2]nonan-4-yl}-8-fluoro-2-{[(2S)-1-methylpyrrolidin-2-yl]methoxy}quinazolin-7-yl)naphthalen-2-ol] | >100 µM | 13.66 µM
12 | Cc1cc(N)nc(-c2c(Cl)cc3c(N4CC[C@H]5CC[C@@H](C4)N5)nc(OCC4(CN5CCCC(F)C5)CC4)nc3c2F)c1C(F)(F)F (stereo partly drawn) [Example 10-10, 6-{6-chloro-4-[(1S,6R)-3,9-diazabicyclo[4.2.1]nonan-3-yl]-8-fluoro-2-({1-[(3-fluoropiperidin-1-yl)methyl]cyclopropyl}methoxy)quinazolin-7-yl}-4-methyl-5-(trifluoromethyl)pyridin-2-amine] | 2.4 µM | 0.02 µM
13 | Oc1cc(-c2c(Cl)cc3c(N4CC[C@H]5CC[C@@H](C4)N5)nc(OC[C@]45CCCN4C[C@H](F)C5)nc3c2F)c2ccccc2c1 [Example 7, 4-(2-{[(2R,7aR)-2-fluoro-hexahydro-1H-pyrrolizin-7a-yl]methoxy}-6-chloro-4-[(1S,6R)-3,9-diazabicyclo[4.2.1]nonan-3-yl]-8-fluoroquinazolin-7-yl)naphthalen-2-ol] | 0.48 µM | <0.002 µM
14 | Cc1cc(N)nc(-c2c(Cl)cc3c(N4CC[C@H]5CC[C@@H](C4)N5)nc(OCC4(CN(C)C)CC4)nc3c2F)c1C(F)(F)F [Example 10-1, 6-{6-chloro-4-[(1S,6R)-3,9-diazabicyclo[4.2.1]nonan-3-yl]-2-({1-[(dimethylamino)methyl]cyclopropyl}methoxy)-8-fluoroquinazolin-7-yl}-4-methyl-5-(trifluoromethyl)pyridin-2-amine] | 1.0 µM | 0.007 µM
15 | Cc1cc(N)nc(-c2c(Cl)cc3c(N4CC[C@H]5CC[C@@H](C4)N5)nc(OC[C@]45CCCN4C[C@@H](F)C5)nc3c2F)c1C(F)(F)F [Example 4-2, 6-(2-{[(2S,7aR)-2-fluoro-hexahydro-1H-pyrrolizin-7a-yl]methoxy}-6-chloro-4-[(1S,6R)-3,9-diazabicyclo[4.2.1]nonan-3-yl]-8-fluoroquinazolin-7-yl)-4-methyl-5-(trifluoromethyl)pyridin-2-amine] | 0.43 µM | 0.006 µM
16 | CCc1cccc2cc(O)cc(-c3c(Cl)cc4c(N5CC[C@H]6CC[C@@H](C5)N6)nc(OC[C@@]56CCCN5C[C@H](F)C6)nc4c3F)c12 (single isomer, unassigned) [Example 8-1] | 5.7 µM | 0.04 µM
17 | C#Cc1c(F)ccc2cc(O)cc(-c3ccc4c(N5CC[C@H]6CC[C@@H](C5)N6)nc(OC[C@@]56CCCN5C[C@H](F)C6)nc4c3F)c12 [Example 11-6, 4-(2-{[(2R,7aS)-2-fluoro-hexahydro-1H-pyrrolizin-7a-yl]methoxy}-4-[(1S,6R)-3,9-diazabicyclo[4.2.1]nonan-3-yl]-8-fluoroquinazolin-7-yl)-5-ethynyl-6-fluoronaphthalen-2-ol] | 0.17 µM | 0.02 µM
18 | Oc1cc(-c2c(Cl)cc3c(N4CC[C@H]5CC[C@@H](C4)N5)nc(OC[C@]45CCCN4C[C@@H](F)C5)nc3c2F)c2ccccc2c1 (single isomer, unassigned) [Example 8-10] | 14.2 µM | 0.50 µM
19 | Nc1cc2cccc(F)c2c(-c2ccc3c(N4CC[C@H]5CC[C@@H](C4)N5)nc(OC[C@@]45CCCN4C[C@H](F)C5)nc3c2F)n1 [Example 11-4, 1-(2-{[(2R,7aS)-2-fluoro-hexahydro-1H-pyrrolizin-7a-yl]methoxy}-4-[(1S,6R)-3,9-diazabicyclo[4.2.1]nonan-3-yl]-8-fluoroquinazolin-7-yl)-8-fluoroisoquinolin-3-amine] | 43.1 µM | 2.2 µM
20 | Oc1cc(-c2c(Cl)cc3c(N4CC[C@H]5CC[C@@H](C4)N5)nc(OC[C@@]45CCCN4C[C@H](F)C5)nc3c2F)c2c(F)cccc2c1 (single isomer, unassigned) [Example 8-5] | 0.07 µM | –
